Calls of active or inactive are those of the source. The calls are words filed in the database; no cut-off is given here.
How the values were obtained:
[1] = target: T1, Tyrosinase (Agaricus bisporus, UniProt O42713); assay: (§1) Inhibition of monophenolase activity of mushroom tyrosinase using as L-tyrosine substrate by spectrophotometric analysis
T1 sequence (O42713 whole entry): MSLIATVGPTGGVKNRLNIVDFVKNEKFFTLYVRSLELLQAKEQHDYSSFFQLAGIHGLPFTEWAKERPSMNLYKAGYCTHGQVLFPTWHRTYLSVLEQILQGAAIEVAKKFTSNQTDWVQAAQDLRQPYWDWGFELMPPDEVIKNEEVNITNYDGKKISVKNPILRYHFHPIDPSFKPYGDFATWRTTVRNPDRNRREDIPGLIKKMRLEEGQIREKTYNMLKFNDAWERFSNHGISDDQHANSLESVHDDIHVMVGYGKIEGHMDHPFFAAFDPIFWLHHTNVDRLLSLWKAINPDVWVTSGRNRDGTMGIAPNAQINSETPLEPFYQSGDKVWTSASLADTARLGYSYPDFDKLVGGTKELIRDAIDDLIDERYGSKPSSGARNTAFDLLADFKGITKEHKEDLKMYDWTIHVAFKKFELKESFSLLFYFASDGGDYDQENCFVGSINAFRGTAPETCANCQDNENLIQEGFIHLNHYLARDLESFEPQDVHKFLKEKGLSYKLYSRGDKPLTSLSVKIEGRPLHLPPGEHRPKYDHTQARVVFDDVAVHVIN

[2] = target: T1, Tyrosinase; assay: Competitive inhibition of monophenolase activity of mushroom tyrosinase using as L-tyrosine substrate by Lineweaver-Burke plot analysis
[3] = system: B16; assay: Inhibition of alpha-MSH-induced melanin production in mouse B16 cells assessed as reduction pigmentation at 20 uM after 48 hrs; type: functional, cell-based
[4] = system: B16; assay: cells; details: Mus musculus, B16, 48 h
[5] = target: T2, Tyrosinase (Agaricus bisporus) (UniProt O42713); assay: as §1
T2 sequence (whole entry): T1 sequence (O42713 whole entry)

[6] = system: B16; assay: Cytotoxicity against mouse B16 cells up to 30 uM after 48 hrs by MTT assay; type: cell-based; details: b16, 48 h
[7] = system: B16; assay: Inhibition of melanin production in mouse B16 cells after 48 hrs; type: functional, cell-based
[8] = Cytotoxicity against mouse B16 cells at 10 uM after 72 hrs by MTT assay; type: cell-based; details: read-out: Survival
[9] = Cytotoxicity against mouse B16 cells at 20 uM after 72 hrs by MTT assay; type: cell-based; details: read-out: Survival
[10] = Cytotoxicity against mouse B16 cells at 30 uM after 72 hrs by MTT assay; type: cell-based; details: read-out: Survival
[11] = system: B16; assay: Reduction of alpha-MSH-induced microphthalmia-associated transcription factor expression in mouse B16 cells after 2 days by Western blot analysis; type: functional, cell-based
[12] = system: B16; assay: Reduction of alpha-MSH-induced tyrosinase expression in mouse B16 cells after 2 days by Western blot analysis; type: functional, cell-based
[13] = system: B16; assay: Reduction of alpha-MSH-induced tyrosinase related protein 1 expression in mouse B16 cells after 2 days by Western blot analysis; type: functional, cell-based
[14] = system: B16; assay: Reduction of alpha-MSH-induced tyrosinase related protein 2 expression in mouse B16 cells after 2 days by Western blot analysis; type: functional, cell-based
[15] = system: Cavia porcellus; assay: Reduction of pigmentation in UV-induced hyperpigmentation brown guinea pig model at 0.3% applied topically bid for 4 weeks; type: functional, organism-based
[16] = system: Cavia porcellus; assay: Toxicity in UV-induced hyperpigmentation brown guinea pig model at 0.3% applied topically bid for 4 weeks; type: organism-based; details: in vivo, topical_or_ocular, 672 h
[17] = system: B16; assay: Inhibition of alpha-MSH-induced melanin production in mouse B16 cells after 48 hrs

| SMILES | IC50 [1] | Ki [2] | Activity [3] | IC50 [4] | Activity [5] | further results |
| --- | --- | --- | --- | --- | --- | --- |
| O=C(/C=C/c1ccc(O)cc1)c1ccc(O)cc1 [4,4'-DIHYDROXYCHALCONE] | 4.8 µM | 2.9 µM | Active | 48.7 µM |  |  |
| Nc1ccc(S(=O)(=O)Nc2ccc(C(=O)/C=C/c3ccc(O)cc3)cc2)cc1 | 30.7 µM | 16.7 µM |  | 21.2 µM | Dose-dependent effect |  |
| Cc1ccc(S(=O)(=O)Nc2ccc(C(=O)/C=C/c3ccc(O)cc3)cc2)cc1 | 23.3 µM | 12.6 µM | Active | 10.4 µM | Dose-dependent effect | Activity [6]: Non-toxic; Activity [7]: Active; viability at 72 h, 10 µM [8]: 92%; viability at 72 h, 20 µM [9]: 84%; viability at 72 h, 30 µM [10]: 78%; Activity [11]: Active; Activity [12]: Active; Activity [13]: Active; Activity [14]: Active; Activity [15]: Active; Activity [16]: Non-toxic; Activity [17]: Dose-dependent effect |
| Nc1ccc(C(=O)/C=C/c2ccc(O)cc2)cc1 | 8.3 µM | 3.9 µM | Active | 28.1 µM |  |  |
| O=C(/C=C/c1ccc(O)cc1)c1ccc(NS(=O)(=O)c2ccc([N+](=O)[O-])cc2)cc1 | 15.2 µM | 11.4 µM |  |  | Dose-dependent effect |  |
| O=C(/C=C/c1ccc(O)cc1)c1ccc(NS(=O)(=O)c2ccc(F)cc2)cc1 | 29.1 µM | 14.9 µM |  | 19.8 µM | Dose-dependent effect |  |
| O=C(/C=C/c1ccc(O)cc1)c1ccc(NS(=O)(=O)c2ccc(O)cc2)cc1 | 58.8 µM | 25.2 µM |  | 32.1 µM | Dose-dependent effect |  |
| O=C(/C=C/c1ccc(O)cc1)c1ccc(NS(=O)(=O)c2ccccc2)cc1 | 22.5 µM | 13.3 µM |  | 24.2 µM | Dose-dependent effect |  |
